Converted amounts (≈) assume the structure as drawn.

The conditions of the data set: buffer; pH 7.4; 200.0 µM.
The term solubility (kinetic) denotes solubility judged after dilution from a stock solution rather than from solid. Consider `CCCOC(=O)CC1C(=O)NCCN1C(=O)OC(C)(C)C` (stereo not given), for which the solubility (kinetic) is > 45.1 µg/mL.
For `O=C(NC1CCN(C(=S)Nc2ccccc2)CC1)C1CCCCC1` the value was 2.1 µg/mL (≈ 6.08 µM); for `COc1ccc(CN(C(C)=O)c2ccccc2C(=O)O)cc1`, 43.7 µg/mL (≈ 146 µM).
Turning to `Cc1cccc(-c2noc(-c3ccc4c(c3)OCO4)n2)c1`, the solubility (kinetic) is < 0.3 µg/mL.
For `CC(=O)SC1CC(=O)N(c2c(C)cccc2C)C1=O` (stereo not given) the value was > 41.6 µg/mL; for `O=C(O)CC(c1cccc(O)c1)N1Cc2ccccc2C1=O` (stereo not given), > 44.6 µg/mL; for `CCC(=O)NC(Cc1ccccc1)c1nc2ccccc2[nH]1` (stereo not given), > 44 µg/mL.
With `Cc1c(C(=O)NCC2CCCO2)oc2c(Cl)cccc12` (stereo not given), the solubility (kinetic) was > 44.1 µg/mL.
For `NC(=S)c1ncc(C(F)(F)F)cc1Cl` the value was 30.4 µg/mL (≈ 126 µM).
For `CC(=O)c1c(C)n(Cc2ccccc2)c2ccc(O)cc12` the value was 0.7 µg/mL (≈ 2.51 µM).
For `O=C1CC(Cc2ccccc2)C(=O)N1c1ccccn1` (stereo not given) the value was > 39.9 µg/mL; for `COC(=O)c1cnc(SCC(=O)c2ccccc2)n1C`, > 43.6 µg/mL; for `O=C(OCC(=O)N1CCCC1)c1cc(=O)c2ccccc2o1`, > 45.2 µg/mL.
`CC1=CCC(C(=O)O)C(C(=O)Nc2cccnc2)C1` (stereo not given) yielded a kinetic solubility of 33.3 µg/mL (≈ 128 µM).
`O=C(CCNS(=O)(=O)c1ccccc1F)OCc1ccccc1Cl` gave a kinetic solubility of 34.5 µg/mL (≈ 92.8 µM).
For `Cn1cccc1C(=O)c1cccc([N+](=O)[O-])c1` the value was 14.3 µg/mL (≈ 62.1 µM); for `N#Cc1c(N2CCOCC2)nsc1-c1ccccc1`, 1.6 µg/mL (≈ 5.9 µM); for `O=C(CSc1ccccc1F)NCCN1C(=O)CSC1=O`, 48.1 µg/mL (≈ 146 µM).
For `COc1ccc(CC(=O)Nc2cccc3ncccc23)cc1OC` the value was > 48.4 µg/mL.
For `O=C(CCNC(=O)c1ccccc1Cl)NCc1ccco1` the value was > 46 µg/mL.
In turn, `COc1ccc(NC(=O)C2CCCCC2)cc1S(=O)(=O)N1CCOCC1` showed a solubility (kinetic) of 51.6 µg/mL (≈ 135 µM).
Take `CSc1nc2ccccc2c(=O)n1C1CCOC(C)(C)C1` (stereo not given): the solubility (kinetic) came to 28.4 µg/mL (≈ 93.3 µM).
For `CN1CCN(/C=C(\C#N)S(=O)(=O)c2ccc(Cl)cc2)CC1` the value was 44.1 µg/mL (≈ 135 µM); for `O=C(O)CSCc1nc2scc(-c3ccccc3)c2c(=O)[nH]1`, > 49.9 µg/mL; for `Cc1ccccc1S(=O)(=O)c1cc2ccccc2nc1N`, 1.5 µg/mL (≈ 5.03 µM).
For `CN(C)CCn1c(=S)[nH]c2ncccc2c1=O` the value was 35.8 µg/mL (≈ 143 µM); for `N#Cc1ccccc1OCC(=O)C1CC1`, 28.4 µg/mL (≈ 141 µM).
As for `COCC[N+]1(C)CCCCC1.[I-]`, the kinetic solubility is > 42.8 µg/mL.
For `O=C(CCc1ccccc1)NCC1(c2ccccc2)CCCC1` the value was 23.8 µg/mL (≈ 77.4 µM); for `CC1CCCN(C(=O)NC(=O)c2ccc(Cl)cc2)C1` (stereo not given), 41.8 µg/mL (≈ 149 µM); for `O=C(Nc1ccc(Cl)cc1)C1(S(=O)(=O)c2ccccc2)CC1`, 7.7 µg/mL (≈ 22.9 µM).
For `O=C(CN1C(=O)C(=O)N(CCC2=CCCCC2)C1=O)c1c[nH]c2ccccc12` the value was 3.2 µg/mL (≈ 8.43 µM); for `CC(=O)NC(=S)Nc1cc(C(=O)O)ccc1Cl`, > 40.9 µg/mL.
For `CC1=NCCN1CCNC(=O)Nc1ccc(C(C)(C)C)cc1` the value was > 45.4 µg/mL.
The compound `COc1ccc(NS(=O)(=O)c2cc(NC(=O)c3ccccc3)ccc2N2CCOCC2)cc1` returned a kinetic solubility of 13.1 µg/mL (≈ 28 µM).
For `NC1=C(c2ccccc2)C(=O)NC1=O` the value was > 28.2 µg/mL.
For `Cc1ccc(SCC(=O)NC2CC2)cc1` the value was > 33.2 µg/mL.
For `CC(C)(C)c1cc(CCC(=O)N2CCCC2)cc(C(C)(C)C)c1O` the value was 43.8 µg/mL (≈ 132 µM).
For the compound `O=C(CCc1nc2ccccc2s1)N1CCN(c2ccccc2)CC1`, the solubility (kinetic) is > 52.7 µg/mL.
For `O=C(Nc1sc2c(c1C(=O)O)CCC2)c1ccccc1Cl` the value was 41.1 µg/mL (≈ 128 µM).
Regarding `NS(=O)(=O)c1ccc(CCNC(=S)NC2CCCC2)cc1`, the solubility (kinetic) was > 49.1 µg/mL.
For `COc1ccccc1CN(C)C(=O)c1cc(C)nc2ccccc12` the value was > 48.1 µg/mL; for `CC(=O)Nc1cccc(OCCCNC(=O)C2CCC2)c1`, > 43.6 µg/mL.
For `COc1ccc(NC(C)=O)cc1S(=O)(=O)N1CC=C(c2ccccc2)CC1` the value was 2.6 µg/mL (≈ 6.73 µM); for `COC(=O)c1ccc(NC(=O)Cn2c([N+](=O)[O-])cnc2C)cc1`, 28.8 µg/mL (≈ 90.5 µM).
For `Cc1ccc2nc(SCC(=O)NC3CC3)[nH]c2c1` the value was > 39.2 µg/mL; for `O=C(O)CNc1nc(-c2ccccc2)nc2c1oc1ccccc12`, > 47.9 µg/mL; for `COC(=O)c1ccccc1-n1c(C)nc(=O)c(-c2ccccc2)c1C`, > 50.2 µg/mL.
Regarding `COc1cccc(NC(=O)C(=O)NCCCN2CCCC2=O)c1`, the kinetic solubility is > 47.9 µg/mL.
For `N#CC1=C(N)NC(=S)C(C(N)=O)C1c1ccc(Cl)cc1Cl` (stereo not given) the value was 11.7 µg/mL (≈ 34.3 µM); for `C=CCN1CC(C)/C(=N\O)CC1C` (stereo not given), 26.4 µg/mL (≈ 145 µM); for `O=C1COc2ccc(C(=O)COC(=O)c3ccccn3)cc2N1`, 16.9 µg/mL (≈ 54.1 µM).
In turn, `Nc1c(NC=O)c(=O)n(Cc2ccccc2)c(=O)n1Cc1ccccc1` displayed a kinetic solubility of 52.1 µg/mL (≈ 149 µM).
In turn, `Cc1ccc(-c2nc3ccc(Cl)cc3c(=O)n2O)cc1` displayed a kinetic solubility of 42.2 µg/mL (≈ 147 µM).
For `Cc1ccc(C)c(NC(=O)COC(=O)CC2CC3CCC2C3)c1` (stereo not given) the value was 20.4 µg/mL (≈ 64.7 µM); for `NC12NC(=O)C3(O)C4C5CC(C6C5C3C61)C42` (stereo not given), > 32.7 µg/mL.
`Cc1[nH]c2ccccc2c1C(=O)CSC(=S)N1CCN(C)CC1` registered a kinetic solubility of 2.4 µg/mL (≈ 6.91 µM).
For `Cc1ccccc1C(=O)Nc1cccc(NC(=O)c2cccs2)c1` the value was 17.7 µg/mL (≈ 52.6 µM); for `O=C(COC(=O)CNC(=O)c1ccc(Cl)cc1Cl)NC1CC1`, > 51.8 µg/mL.
For `Cc1nc(NC(=O)CCN2C(=O)C3CC=CCC3C2=O)sc1C` (stereo not given) the value was > 50 µg/mL.
For `O=C(NC1CC1)C1CCN(C(=O)c2ccccc2Cl)CC1` the value was > 46 µg/mL.
For `O=C(CCS(=O)(=O)c1ccccc1)N1CCCc2ccccc21`, the solubility (kinetic) is 49.2 µg/mL (≈ 149 µM).
On to `CC1CCCCC1NC(=O)COC(=O)c1ccc2ccccc2n1` (stereo not given), for which the solubility (kinetic) came out at 7.1 µg/mL (≈ 21.8 µM).
For `O=C(OCc1cc(=O)n2ccsc2n1)c1ccccc1NCCO` the value was > 51.8 µg/mL; for `CCOC(=O)C1=C(N)Oc2cc(O)ccc2C1c1ccccc1` (stereo not given), < 0.7 µg/mL.
`COC(=O)CN1C(=O)COc2ccc(S(=O)(=O)NCc3ccccc3)cc21` returned a solubility (kinetic) of 58.3 µg/mL (≈ 149 µM).
For `CCc1cccc(NC(=O)CCCN2C(=O)NC(C)(C)C2=O)c1` the value was > 47.6 µg/mL.
For `CC(=O)NC(Cc1ccc(O)cc1)C(=O)NN` (stereo not given) the value was > 35.6 µg/mL; for `NC(=O)CSc1ccc(S(=O)(=O)N2CCCCC2)cn1`, 44.6 µg/mL (≈ 141 µM).
For `Cc1cc2c(cc1C)C(c1ccccc1F)CC(=O)N2` (stereo not given) the value was < 0.6 µg/mL.
For `COc1cc(N2C(=O)CC(=O)NC2=O)cc(OC)c1OC`, the kinetic solubility stood at 40.7 µg/mL (≈ 138 µM).
For `O=S(=O)(Cc1cc(-c2ccccc2Cl)no1)c1ccccc1` the value was 1.8 µg/mL (≈ 5.39 µM).
For `CC1CC(C)CN(C(=O)COC(=O)c2ccc(Cl)nc2)C1` (stereo not given) the value was > 46.6 µg/mL; for `O=C(COC(=O)COc1ccccc1F)Nc1ccc(Cl)cn1`, 7.6 µg/mL (≈ 22.4 µM); for `CC1(C)CC(C(N)=S)CCO1` (stereo not given), 23.5 µg/mL (≈ 136 µM).
As for `O=C(NCc1ccncc1)c1cc(F)c(F)cc1Cl`, the solubility (kinetic) is > 42.4 µg/mL.
As for `O=C(Nc1ccc(S(=O)(=O)Nc2ncccn2)cc1)c1ccccc1`, the kinetic solubility was > 53.2 µg/mL.
For `O=C(CN1CCN(Cc2ccccc2Cl)CC1)N/N=C/c1ccccn1` the value was > 55.8 µg/mL.
For `CC(=O)c1cccc(NC(=O)CCC(=O)Oc2ccc(C)cc2)c1` the value was > 48.8 µg/mL; for `Cc1ccccc1-c1nnc(SCC(=O)N(C)C2CCS(=O)(=O)C2)n1C` (stereo not given), > 59.2 µg/mL; for `O=C(NC(=S)NCc1ccccc1)c1cccc(Cl)c1`, < 0.3 µg/mL.
For `CCOC(=O)c1csc(NC(=O)c2ccc(C#N)cc2)n1` the value was 1 µg/mL (≈ 3.32 µM); for `COc1ccccc1C(=O)NC1CC(C)(C)NC(C)(C)C1`, > 43.6 µg/mL.
For `Cn1c(C(=O)N[C@@H](C(=O)O)c2ccccc2)cc2cc(Cl)ccc21`, the kinetic solubility was > 51.4 µg/mL.
For `Cc1ccc(CNC(=O)C2CCC(=O)N(C3CC3)C2)cc1` (stereo not given) the value was > 43 µg/mL; for `CCc1ccc(N(C(C)=O)c2nc(CCl)cs2)cc1`, > 44.2 µg/mL; for `COC(=O)COc1ccc(NC(=O)c2ccco2)cc1`, 39.1 µg/mL (≈ 142 µM).
For `COC1CC(C)NC(=S)N1` (stereo not given) the value was > 24 µg/mL.
For `O=C(O)CCNC(=O)/C(=C/c1ccco1)NC(=O)c1ccco1` the value was > 47.7 µg/mL; for `CCc1ccc(NC(=O)COC(=O)CCC2CCCC2)cc1`, 7.9 µg/mL (≈ 26 µM).
As to `CSc1ncccc1C(=O)OCC(=O)NC1CC1`, the kinetic solubility is > 39.9 µg/mL.
For `O=[N+]([O-])c1ccccc1CN1CC=C(c2ccc(F)cc2)CC1` the value was 2.3 µg/mL (≈ 7.36 µM); for `O=C(O)CNC(=O)C12CC3CC(CC(Cl)(C3)C1)C2`, > 40.8 µg/mL.
Turning to `O=C(COC(=O)c1cncc(Br)c1)NC1CCCC1`, the solubility (kinetic) is > 49.1 µg/mL.
For `CC(=O)Nc1ccc(OCC(O)Cn2cncn2)cc1` (stereo not given) the value was > 41.4 µg/mL; for `NC(=O)C1CCN(C(=O)CSc2nc(O)cc(=O)[nH]2)CC1`, 31.1 µg/mL (≈ 99.6 µM).
For `CN1CCN(c2ccc(S(=O)(=O)N3CCOCC3)cc2NC(=O)CSCc2ccccc2)CC1` the value was > 75.7 µg/mL; for `Nc1ccc(C(=O)CC(=O)Nc2ccc(Cl)cc2)cc1`, 14.3 µg/mL (≈ 49.5 µM); for `O/N=C\c1ccccc1Oc1ccc(F)cc1`, 32.3 µg/mL (≈ 140 µM).
In the case of `CC1CC(C)CN(C(=O)c2ccc3nc[nH]c3c2)C1` (stereo not given), the solubility (kinetic) is > 38.6 µg/mL.
Regarding `O=C(Cn1c(=S)[nH]c2ncccc2c1=O)NCCc1ccccc1`, the solubility (kinetic) was found to be 2.1 µg/mL (≈ 6.17 µM).
For `C=CCn1c(SCC(=O)N2CCOCC2)nc2sc(CC)cc2c1=O` the value was > 56.9 µg/mL; for `COc1ccc(C(=O)N2CCC(C(=O)c3c(C)cc(C)cc3C)CC2)cc1`, 31.4 µg/mL (≈ 85.9 µM); for `CCOc1cc(/C=C2\SC(=O)N(c3ccc(O)cc3)C2=O)ccc1O`, 4 µg/mL (≈ 11.2 µM).
For `O=C(NCc1cccnc1)C1CCC(c2ccc(Cl)cc2)CC1` (stereo not given) the value was 14.9 µg/mL (≈ 45.3 µM).

The record behind these values is PubChem BioAssay AID1996.
